Source: patent publication US9028855B2, “Plant additives and uses thereof to modulate the synthesis of membrane glycerolipids in planta” (Commissariat a l'Energie Atomique et aux Energies …, priority 2009, dated 2015)
Entries after “also recorded” stand apart in the source; their conditions may differ.

Tests used:
wild type seedlings = test: Anthocyanins content (spectrophotometric); type: in vivo, A. thaliana; set-up: key to Antho: anthocyanin content as A530 - 2.2*A652; conditions: accumulation of anthocyanes; +P control 46, −P 1008
Procedure: Anthocyanins were extracted with propanol:HCl:H2O (81:1:18) for 5 min at room temperature and 3 min at 100° C. Samples are centrifuged for 10 min at 4° C. Supernatants were collected and absorption measured at 530 nm and […]. Anthocyanin content was calculated as A530-2.2A652 (Lange et al., 1971).

phopholipase Dz2 = test: PLDz::GUS, follow-up of the expression of the gene encoding phospholipase Dz2 (GUS staining); type: in vivo, A. thaliana; conditions: summary over PLDz::GUS and MGD3::GUS; specific = without impact on growth or PHT1;4
Procedure: pPLDZ2:GUS-GFP cell line is as described by Cruz-Ramirez et al. (Cruz-Ramirez et al., 2006), and expressed a GUS-GFP fusion under the control of the pldz2 promoter. […] Plants were examined for GUS activity by dipping the samples in a GUS staining solution (50 mM sodium phosphate buffer pH 7.0; 0.01% Triton X-100, 1 mM K3Fe(CN)6, 1 mM K4Fe(CN)6, 1 mg/ml 5-dromo-4-chloro-3-indolyl (3-D-GLUCURONIDE (X-Gluc A) and incubated at 37° C. over-night. After staining, the plants were fixed 2 hours in 50 mM sodium phosphate buffer pH 7.0; 1% glutaraldehyde; 4% formaldehyde. In response to phosphate starvation, the lipid metabolism is modified (Benning and Ohta, 2005). Plants preferentially synthesize sulpho- and galacto-lipids instead of phospholipids. Several enzymes are involved in this remobilisation.

A. thaliana = test: Root growth (primary root) of plants on high phosphate medium supplied with compound; type: in vivo; conditions: expressed as a percentage having regard to a control; +P control 100, −P 20
Source text: In response to phosphate starvation, the primary root growth is inhibited (Svistoonoff et al., 2007).

| Compound | Antho (wild type seedlings) | lipid metabolism: induction of PLDζ2 and/or MGD3 genes (in words) (phopholipase Dz2) | Root Growth (A. thaliana) |
| --- | --- | --- | --- |
| CC1(C)CC(=O)C(=CNc2ccccc2N)C(=O)C1 [#40] | 65 | specificity in lipids remodeling | 85 % of control |
| COc1cccc(NC=C2C(=O)CCCC2=O)c1 [#41] | 111 | impact specifically the lipid metabolism inducing PLD[…]2 and MGD3; also recorded: specificity in lipids remodeling | 65 % of control |
| CC1(C)CC(=O)C(=CNc2ccc(N)cc2)C(=O)C1 [#42] | 226 | impact specifically the lipid metabolism inducing PLD[…]2 and MGD3; also recorded: specificity in lipids remodeling | 68 % of control |
| O=C1CCCC(=O)C1=CNc1ccc(Br)cc1 [#45] | 106 | impact specifically the lipid metabolism inducing PLD[…]2 and MGD3; also recorded: specificity in lipids remodeling | 67 % of control |
| COc1ccc(NC=C2C(=O)CCCC2=O)cc1 [#46] | 167 | specificity in lipids remodeling | 70 % of control |
